Reference: PMC9343080, “Distribution- and Metabolism-Based Drug Discovery: A Potassium-Competitive Acid Blocker as a Proof of Concept” (Research, 2022)
Like-named read-outs stand apart in the source and are kept apart here.

Columns and labels:
[1] = tested on: 2-DG-stimulated gastric acid secretion; experiment: In vivo inhibition of 2DG-stimulated acid secretion in anesthetized rats; set-up: species or system rat
Description: 60 SPF SD rats weighing 180-220 g were randomly divided into […]: sham, model, SH-337 (2 mg/kg and 4 mg/kg), vonoprazan (2 mg/kg), males and females are equally divided. Fasting for 24 hours, model and sham groups were treated with deionized water. Drugs and vehicle were given through intragastric administration to rats before anesthesia. 1 h after administration, pylorus was ligated. 5 min later, histamine 2HCl (30 mg/10 mL/kg) was injected subcutaneously. At 3 h after histamine administration, the rats were killed by CO2 asphyxiation. The gastric contents were collected in a 10 mL centrifuge tube after removing their stomachs. Centrifuge at 3000 g for 10 min, and then, determine the total acid output during a 3 h period by 0.1 M NaOH [52, 53]. %Inhibition = (average of modelacid–drugacid)/average of modelacid × 100%.
The 2DG-stimulated acid secretion in anesthetized rats was measured as described as for histamine-stimulated acid secretion, with the exception that 5 min after pylorus ligation, 2-DG (200 mg/10 mL/kg) was injected subcutaneously.

[2] = Acute (single-dose) toxicity test; assay type: in vivo; details: SD rats, single dose of 1000 mg/kg, i.g.
Description: (§1) For acute toxicity test: 12 SPF SD rats were randomly divided into three groups and received a single dose of SH-337 (1000 mg/kg, i.g.), and the animal tolerance was recorded within 2 hours. For two-week repeat-dose toxicity test: 20 SPF SD rats were randomly divided into two groups and received SH-337 (100, 200 mg/kg, i.g.) once daily for 14 days. SH-337 was dissolved in 0.5% CMC-Na. The body weight of the rats was recorded every 7 days. During the experiment, clinical parameters included apparent changes in the mental state, skin or fur, behavior, genitals, mucous membranes, respiration, stool consistency, glandular organ secretions, mortality, or other toxic results that were recorded. In addition, animal bodyweight and food intake were assessed once weekly over the study period. At the end of the experiment, the rats were sacrificed, and the serum hematological parameters and serum biochemistry parameters were recorded.

Na+, K+-ATPase = experiment: In vitro Na+, K+-ATPase activity; assay type: biochemical
[3] = Two-week repeat-dose toxicity test; assay type: in vivo, SD rats
Description: as §1

[4] = Tissue distribution of SH-337 in rats (LC-MS/MS); assay type: in vivo, rat; details: for concentration at 15 min / concentration at 1 h / concentration at 2 h / concentration at 4 h / concentration at 24 h: po, 4 mg/kg
Description: 15 SPF male SD rats were randomly divided into 5 groups, three per group. Fasting was for 4 hours. Plasma, heart, liver, and stomach were obtained 0.25, 1, 2, 4, and 24 hours after oral administration of SH-337 (0.4 mg/mL in water) at a dose of 4 mg/kg. At designated time points, rats were anesthetized with ether, and the blood samples were collected via the abdominal aorta. The blood was immediately cooled under ice-chilled conditions and centrifuged at approximately 1500 × g at 4°C for 10 minutes to obtain the plasma. For plasma: 20 μL Std samples in duplicate, QC samples in duplicate, and rat plasma samples were mixed with 60 μL ACN containing IS (200 ng/mL of tolbutamide, 50 ng/mL of propranolol, and 500 ng/mL of Dic) in EP tubes. After the mixture was vortexed for 1 min and then centrifuged for 10 min (13000 rpm, 4°C), transfer 50 μL supernatant to a 96-well plate with 150 μL pure water, shake for 10 min, and finally analyze by LC-MS/MS. For heart and liver: tissue samples were added with 3-folds (w/v) saline in terms of the weight of samples and then homogenated. 20 μL Std samples in duplicate, QC samples in duplicate, and rat heart and liver samples were mixed with 60 μL ACN containing IS (200 ng/mL of tolbutamide, 50 ng/mL of propranolol, and 500 ng/mL of Dic) in EP tubes. After the mixture was vortexed for 1 min and then centrifuged for 10 min (13000 rpm, 4°C), transfer 50 μL supernatant to a 96-well plate with 150 μL pure water, shake for 10 min, and finally analyze by LC-MS/MS. For stomach: tissue samples were added with 3-folds (w/v) saline in terms of the weight of samples and then homogenated. 20 μL Std samples in duplicate, QC samples in duplicate, and rat stomach samples were mixed with 60 μL ACN containing IS (200 ng/mL of tolbutamide, 50 ng/mL of propranolol, and 500 ng/mL of Dic) in EP tubes. After the mixture was vortexed for 1 min and then centrifuged for 10 min (13000 rpm, 4°C), transfer 50 μL supernatant to a 96-well plate with 150 μL pure water, shake for 10 min, and finally analyze by LC-MS/MS.

[5] = rats, single oral 4 mg/kg SH-337
[6] = stomach-liver distribution ratio, rats, oral 4 mg/kg

In the case of CNCc1cc(-c2ccc(OCC3CC3)cc2F)n(S(=O)(=O)c2cccnc2)c1.Cl.Cl [SH-337, 1-(5-(4-(cyclopropylmethoxy)-2-fluorophenyl)-1-(pyridin-3-ylsulfonyl)-1H-pyrrol-3-yl)-N-methylmethanamine dihydrochloride], the “Inhibition (%), 2-DG-stimulated model” value ([1]; i.g. 2 mg/kg) is reported as 78%, the “Total acid output, 2-DG-stimulated model” value ([1]; i.g. 2 mg/kg) is reported as 0.65 ± 0.31^∗∗ 10^−4 mol and the “Inhibition (%), 2-DG-stimulated model” value ([1]; i.g. 4 mg/kg) is reported as 91%. The “Total acid output, 2-DG-stimulated model” value ([1]; i.g. 4 mg/kg) was 0.29 ± 0.29^∗∗ 10^−4 mol, the animal death [2] was “no animal death was observed” and the “single-dose toxicity (tolerance)” value [2] was “well tolerated”. For the same molecule, the IC50 (Na+, K+-ATPase) was 31.3 µM, the Fold selectivity (Na+, K+-ATPase; Na+, K+-ATPase over H+, K+-ATPase) was 925.6 fold and the “NOAEL, fold higher than vonoprazan” value ([3]; 100 mg/kg vs. 30 mg/kg) was 3.3 fold. For the same molecule, the NOAEL at 14 days ([3]; SD, rat, in vivo, po, no observed adverse effect level (NOAEL)) was at least 100 mg/kg, the repeated-dose toxicity findings ([3]; rats, daily oral 100 mg/kg for 2 weeks) was “no evidence of SH-337 toxicity was observed” and the “C Stomach/CLiver (stomach-liver distribution ratio)” value ([4]; AUC, rats, i.g. 4 mg/kg SH-337) was 7.1. The concentration at 15 min ([4]; male, SD, rat, liver, rats, single oral 4 mg/kg SH-337, read-out: Concentration, Liver, 15 min) was 5240 ng/mL, the concentration at 1 h ([4]; male, SD, rat, liver, rats, single oral 4 mg/kg SH-337, read-out: Concentration, Liver, 1 h) was 846 ng/mL and the concentration at 2 h ([4]; male, SD, rat, liver, rats, single oral 4 mg/kg SH-337, read-out: Concentration, Liver, 2 h) was 262 ng/mL. For the same molecule, the concentration at 4 h ([4]; male, SD, rat, liver, rats, single oral 4 mg/kg SH-337, read-out: Concentration, Liver, 4 h) was 145 ng/mL, the concentration at 24 h ([4]; male, SD, rat, liver, rats, single oral 4 mg/kg SH-337, read-out: Concentration, Liver, 24 h) was 1.3 ng/mL and the concentration at 1 h ([4]; male, SD, rat, plasma, rats, 1 h after oral administration of 4.0 mg/kg (Table 2), read-out: Drug concentration, Plasma) was 7.1 ng/mL. The concentration at 15 min ([4]; male, SD, rat, plasma, rats, single oral 4 mg/kg SH-337, read-out: Concentration, Plasma, 15 min) was 9.4 ng/mL, the concentration at 1 h ([4]; male, SD, rat, plasma, rats, single oral 4 mg/kg SH-337, read-out: Concentration, Plasma, 1 h) was 15.5 ng/mL and the concentration at 2 h ([4]; male, SD, rat, plasma, rats, single oral 4 mg/kg SH-337, read-out: Concentration, Plasma, 2 h) was 5.1 ng/mL. For the same molecule, the concentration at 4 h ([4]; male, SD, rat, plasma, rats, single oral 4 mg/kg SH-337, read-out: Concentration, Plasma, 4 h) was 6.7 ng/mL, the AUC(0-t) ([4]; male, SD, rat, plasma, rats, single oral 4 mg/kg SH-337, read-out: AUC-last, Plasma) was 32.6 ng·h/mL and the Kp ([4]; male, SD, rat, stomach / plasma, oral, AUC, rats, i.g. 4 mg/kg SH-337, read-out: C Stomach/CPlasma (stomach-plasma distribution ratio)) was 1360. For the same molecule, the concentration at 1 h ([4]; male, SD, rat, stomach, rats, 1 h after oral administration of 4.0 mg/kg (Table 2), read-out: Drug concentration, Stomach) was 6690 ng/mL, the concentration at 15 min ([4]; male, SD, rat, stomach, rats, single oral 4 mg/kg SH-337, read-out: Concentration, Stomach, 15 min) was 9820 ng/mL and the concentration at 1 h ([4]; male, SD, rat, stomach, rats, single oral 4 mg/kg SH-337, read-out: Concentration, Stomach, 1 h) was 3340 ng/mL. For the same molecule, the concentration at 2 h ([4]; male, SD, rat, stomach, rats, single oral 4 mg/kg SH-337, read-out: Concentration, Stomach, 2 h) was 3030 ng/mL, the concentration at 4 h ([4]; male, SD, rat, stomach, rats, single oral 4 mg/kg SH-337, read-out: Concentration, Stomach, 4 h) was 2810 ng/mL and the concentration at 24 h ([4]; male, SD, rat, stomach, rats, single oral 4 mg/kg SH-337, read-out: Concentration, Stomach, 24 h) was 136 ng/mL. The Kp at 1 h ([4]; male, SD, rat, ratio of stomach to plasma distribution 1 h after oral administration of 4.0 mg/kg, read-out: C Stomach/CPlasma) was 943, the “AUC0–24, Liver” value ([4]; rats, i.g. 4 mg/kg SH-337) was 6155.6 ng equiv. h/mL or g and the “AUC0–24, Plasma” value ([4]; rats, i.g. 4 mg/kg SH-337) was 32.6 ng equiv. h/mL or g. The “AUC0–24, Stomach” value ([4]; rats, i.g. 4 mg/kg SH-337) was 44240.4 ng equiv. h/mL or g, the “retention in the stomach” value ([4]; rats, oral 4 mg/kg) was “more than 24 h” and the “AUC-last, Liver” value [4, 5] was 6155.6 ng·h/g. The “AUC-last, Stomach” value [4, 5] was 44240.4 ng·h/g, the “Concentration, Plasma, 24 h” value ([4]; rats, single oral 4 mg/kg SH-337, BLQ: below limit of quantification) was “BLQ” and the “CStomach/CLiver, 15 min” value [4, 6] was 1.9. For the same molecule, the “CStomach/CLiver, 1 h” value [4, 6] was 3.95, the “CStomach/CLiver, 2 h” value [4, 6] was 11.6 and the “CStomach/CLiver, 4 h” value [4, 6] was 19.4. For the same molecule, the “CStomach/CLiver, 24 h” value [4, 6] was 104.9.
